{"source": "ChEMBL document CHEMBL3045420", "about": "“Regulation of glycogen metabolism by anti-dyslipidemic action of gemfibrozil and cholestyramine in a dyslipidemic-diabetic hamster model” (2008)", "key": {"Syrian golden hamster [1]": {"test_system": "Syrian golden hamster", "test": "Antidyslipidemic activity in Mesocricetus auratus (Syrian golden hamster) high fat diet-induced dyslipidemic-diabetic model assessed as increase of glycogen level in muscle at 500 mg/kg, po qd for 10 days relative to control", "assay_type": "functional"}, "Syrian golden hamster [2]": {"test_system": "Syrian golden hamster", "test": "Antidyslipidemic activity in Mesocricetus auratus (Syrian golden hamster) high fat diet-induced dyslipidemic-diabetic model assessed as increase of hexokinase in muscle by measuring […] release per mg of protein at 500 mg/kg, po qd for 10 days relative to control", "assay_type": "functional"}, "Syrian golden hamster [3]": {"test_system": "Syrian golden hamster", "test": "Antidyslipidemic activity in Mesocricetus auratus (Syrian golden hamster) high fat diet-induced dyslipidemic-diabetic model assessed as increase of cholesterylesters fecal excretion at 500 mg/kg, po qd for 10 days relative to control", "assay_type": "functional, Feces"}, "Syrian golden hamster [4]": {"test_system": "Syrian golden hamster", "test": "Antidyslipidemic activity in Mesocricetus auratus (Syrian golden hamster) high fat diet-induced dyslipidemic-diabetic model assessed as decrease of LHD in muscle by measuring […] oxidation at 500 mg/kg, po qd for 10 days relative to control", "assay_type": "functional"}, "Syrian golden hamster [5]": {"test_system": "Syrian golden hamster", "test": "Antidyslipidemic activity in Mesocricetus auratus (Syrian golden hamster) high fat diet-induced dyslipidemic-diabetic model assessed as reduction of triglyceride level in liver at 500 mg/kg, po qd for 10 days relative to control", "assay_type": "functional"}, "Syrian golden hamster [6]": {"test_system": "Syrian golden hamster", "test": "Antidyslipidemic activity in Mesocricetus auratus (Syrian golden hamster) high fat diet-induced dyslipidemic-diabetic model assessed as increase of glucose-6-phosphate level in liver at 500 mg/kg, po qd for 10 days relative to control", "assay_type": "functional"}, "Syrian golden hamster [7]": {"test_system": "Syrian golden hamster", "test": "Antidyslipidemic activity in Mesocricetus auratus (Syrian golden hamster) high fat diet-induced dyslipidemic-diabetic model assessed as reduction of triglyceride level in muscle at 500 mg/kg, po qd for 10 days relative to control", "assay_type": "functional"}, "Syrian golden hamster [8]": {"test_system": "Syrian golden hamster", "test": "Antidyslipidemic activity in Mesocricetus auratus (Syrian golden hamster) high fat diet-induced dyslipidemic-diabetic model assessed as increase of glucose-6-phosphate level in muscle at 500 mg/kg, po qd for 10 days relative to control", "assay_type": "functional"}, "Syrian golden hamster [9]": {"test_system": "Syrian golden hamster", "test": "Antidyslipidemic activity in Mesocricetus auratus (Syrian golden hamster) high fat diet-induced dyslipidemic-diabetic model assessed as increase of insulin secretion per ml of plasma at 500 mg/kg, po qd for 10 days relative to control", "assay_type": "functional"}, "Syrian golden hamster [10]": {"test_system": "Syrian golden hamster", "test": "Antidyslipidemic activity in Mesocricetus auratus (Syrian golden hamster) high fat diet-induced dyslipidemic-diabetic model assessed as increase of glycogen level in liver at 500 mg/kg, po qd for 10 days relative to control", "assay_type": "functional"}, "Syrian golden hamster [11]": {"test_system": "Syrian golden hamster", "test": "Antidyslipidemic activity in Mesocricetus auratus (Syrian golden hamster) high fat diet-induced dyslipidemic-diabetic model assessed as increase of lipase activity in liver at 500 mg/kg, po qd for 10 days relative to control", "assay_type": "functional"}, "Syrian golden hamster [12]": {"test_system": "Syrian golden hamster", "test": "Antidyslipidemic activity in Mesocricetus auratus (Syrian golden hamster) high fat diet-induced dyslipidemic-diabetic model assessed as increase of glycogen phosphorylase in muscle by measuring […] release per mg of protein at 500 mg/kg, po qd for 10 days relative to control", "assay_type": "functional"}, "Syrian golden hamster [13]": {"test_system": "Syrian golden hamster", "test": "Antidyslipidemic activity in Mesocricetus auratus (Syrian golden hamster) high fat diet-induced dyslipidemic-diabetic model assessed as effect on glycogen synthase in muscle by measuring sodium pyruvate release at 500 mg/kg, po qd for 10 days relative to control", "assay_type": "functional"}, "Syrian golden hamster [14]": {"test_system": "Syrian golden hamster", "test": "Antidyslipidemic activity in Mesocricetus auratus (Syrian golden hamster) high fat diet-induced dyslipidemic-diabetic model assessed as increase of deoxycholic acid fecal excretion at 500 mg/kg, po qd for 10 days relative to control", "assay_type": "functional, Feces"}, "Syrian golden hamster [15]": {"test_system": "Syrian golden hamster", "test": "Antidyslipidemic activity in Mesocricetus auratus (Syrian golden hamster) high fat diet-induced dyslipidemic-diabetic model assessed as reduction of phospholipid level in muscle at 500 mg/kg, po qd for 10 days relative to control", "assay_type": "functional"}, "Syrian golden hamster [16]": {"test_system": "Syrian golden hamster", "test": "Antidyslipidemic activity in Mesocricetus auratus (Syrian golden hamster) high fat diet-induced dyslipidemic-diabetic model assessed as decrease of LHD in liver by measuring […] oxidation at 500 mg/kg, po qd for 10 days relative to control", "assay_type": "functional"}, "Syrian golden hamster [17]": {"test_system": "Syrian golden hamster", "test": "Antidyslipidemic activity in Mesocricetus auratus (Syrian golden hamster) high fat diet-induced dyslipidemic-diabetic model assessed as increase of nonesterfied fatty acid fecal excretion at 500 mg/kg, po qd for 10 days relative to control", "assay_type": "functional, Feces"}, "Syrian golden hamster [18]": {"test_system": "Syrian golden hamster", "test": "Antidyslipidemic activity in Mesocricetus auratus (Syrian golden hamster) high fat diet-induced dyslipidemic-diabetic model assessed as increase of cholic acid fecal excretion at 500 mg/kg, po qd for 10 days relative to control", "assay_type": "functional, Feces"}, "Syrian golden hamster [19]": {"test_system": "Syrian golden hamster", "test": "Antidyslipidemic activity in Mesocricetus auratus (Syrian golden hamster) high fat diet-induced dyslipidemic-diabetic model assessed as increase of lipase activity in muscle at 500 mg/kg, po qd for 10 days relative to control", "assay_type": "functional"}, "Syrian golden hamster [20]": {"test_system": "Syrian golden hamster", "test": "Antidyslipidemic activity in Mesocricetus auratus (Syrian golden hamster) high fat diet-induced dyslipidemic-diabetic model assessed as reduction of lipolysis in adipose tissue at 500 mg/kg, po qd for 10 days relative to control", "assay_type": "functional", "set-up": "scale not given: the % may be the effect or the level left"}, "Syrian golden hamster [21]": {"test_system": "Syrian golden hamster", "test": "Antidyslipidemic activity in Mesocricetus auratus (Syrian golden hamster) high fat diet-induced dyslipidemic-diabetic model assessed as increase of glucose-6-phosphatase in liver by measuring […] release per mg of protein at 500 mg/kg, po qd for 10 days relative to control", "assay_type": "functional"}, "Syrian golden hamster [22]": {"test_system": "Syrian golden hamster", "test": "Antidyslipidemic activity in Mesocricetus auratus (Syrian golden hamster) high fat diet-induced dyslipidemic-diabetic model assessed as increase of triglyceride fecal excretion at 500 mg/kg, po qd for 10 days relative to control", "assay_type": "functional, Feces"}, "Syrian golden hamster [23]": {"test_system": "Syrian golden hamster", "test": "Antidyslipidemic activity in Mesocricetus auratus (Syrian golden hamster) high fat diet-induced dyslipidemic-diabetic model assessed as reduction of glycerol level in plasma at 500 mg/kg, po qd for 10 days relative to control", "assay_type": "functional"}, "Syrian golden hamster [24]": {"test_system": "Syrian golden hamster", "test": "Antidyslipidemic activity in Mesocricetus auratus (Syrian golden hamster) high fat diet-induced dyslipidemic-diabetic model assessed as reduction of nonesterfied fatty acid level in plasma at 500 mg/kg, po qd for 10 days relative to control", "assay_type": "functional"}, "Syrian golden hamster [25]": {"test_system": "Syrian golden hamster", "test": "Antidyslipidemic activity in Mesocricetus auratus (Syrian golden hamster) high fat diet-induced dyslipidemic-diabetic model assessed as reduction of phospholipid level in liver at 500 mg/kg, po qd for 10 days relative to control", "assay_type": "functional"}, "Syrian golden hamster [26]": {"test_system": "Syrian golden hamster", "test": "Antidyslipidemic activity in Mesocricetus auratus (Syrian golden hamster) high fat diet-induced dyslipidemic-diabetic model assessed as effect on glycogen synthase in liver by measuring sodium pyruvate release at 500 mg/kg, po qd for 10 days relative to control", "assay_type": "functional"}, "Syrian golden hamster [27]": {"test_system": "Syrian golden hamster", "test": "Antidyslipidemic activity in Mesocricetus auratus (Syrian golden hamster) high fat diet-induced dyslipidemic-diabetic model assessed as reduction of glucose level in plasma at 500 mg/kg, po qd for 10 days relative to control", "assay_type": "functional"}, "Syrian golden hamster [28]": {"test_system": "Syrian golden hamster", "test": "Antidyslipidemic activity in Mesocricetus auratus (Syrian golden hamster) high fat diet-induced dyslipidemic-diabetic model assessed as reduction of total cholesterol level in plasma at 500 mg/kg, po qd for 10 days relative to control", "assay_type": "functional"}, "Syrian golden hamster [29]": {"test_system": "Syrian golden hamster", "test": "Antidyslipidemic activity in Mesocricetus auratus (Syrian golden hamster) high fat diet-induced dyslipidemic-diabetic model assessed as increase of glycogen phosphorylase in liver by measuring […] release per mg of protein at 500 mg/kg, po qd for 10 days relative to control", "assay_type": "functional"}, "Syrian golden hamster [30]": {"test_system": "Syrian golden hamster", "test": "Antidyslipidemic activity in Mesocricetus auratus (Syrian golden hamster) high fat diet-induced dyslipidemic-diabetic model assessed as reduction of total cholesterol level in muscle at 500 mg/kg, po qd for 10 days relative to control", "assay_type": "functional"}, "Syrian golden hamster [31]": {"test_system": "Syrian golden hamster", "test": "Antidyslipidemic activity in Mesocricetus auratus (Syrian golden hamster) high fat diet-induced dyslipidemic-diabetic model assessed as increase of cholesterol fecal excretion at 500 mg/kg, po qd for 10 days relative to control", "assay_type": "functional, Feces"}, "Syrian golden hamster [32]": {"test_system": "Syrian golden hamster", "test": "Antidyslipidemic activity in Mesocricetus auratus (Syrian golden hamster) high fat diet-induced dyslipidemic-diabetic model assessed as reduction of total cholesterol level in liver at 500 mg/kg, po qd for 10 days relative to control", "assay_type": "functional"}, "Syrian golden hamster [33]": {"test_system": "Syrian golden hamster", "test": "Antidyslipidemic activity in Mesocricetus auratus (Syrian golden hamster) high fat diet-induced dyslipidemic-diabetic model assessed as reduction of triglyceride level in plasma at 500 mg/kg, po qd for 10 days relative to control", "assay_type": "functional"}}}
{"smiles": "Cc1ccc(C)c(OCCCC(C)(C)C(=O)O)c1", "note": "[GEMFIBROZIL]", "values": [{"measurement": "Activity", "setting": "Syrian golden hamster [1]", "result": 3.6, "unit": "mg/g"}, {"measurement": "Activity", "setting": "Syrian golden hamster [2]", "result": 0.066, "unit": "µM/min"}, {"measurement": "Activity", "setting": "Syrian golden hamster [3]", "result": 258.79, "unit": "µg/g"}, {"measurement": "Activity", "setting": "Syrian golden hamster [4]", "result": 21.73, "unit": "nmol/min/mg"}, {"measurement": "Activity", "setting": "Syrian golden hamster [5]", "result": 7.92, "unit": "mg/g"}, {"measurement": "Activity", "setting": "Syrian golden hamster [6]", "result": 0.59, "unit": "µmol/g"}, {"measurement": "Activity", "setting": "Syrian golden hamster [7]", "result": 6.3, "unit": "mg/g"}, {"measurement": "Activity", "setting": "Syrian golden hamster [8]", "result": 0.2, "unit": "µmol/g"}, {"measurement": "Activity", "setting": "Syrian golden hamster [9]", "result": 34, "unit": "uU/ml"}, {"measurement": "Activity", "setting": "Syrian golden hamster [10]", "result": 28.49, "unit": "mg/g"}, {"measurement": "Activity", "setting": "Syrian golden hamster [11]", "result": 60, "unit": "%"}, {"measurement": "Activity", "setting": "Syrian golden hamster [12]", "result": 36.11, "unit": "µM/h"}, {"measurement": "Activity", "setting": "Syrian golden hamster [13]", "result": 0.063, "unit": "nmol/min/mg"}, {"measurement": "Activity", "setting": "Syrian golden hamster [14]", "result": 38.48, "unit": "µg/g"}, {"measurement": "Activity", "setting": "Syrian golden hamster [15]", "result": 5.14, "unit": "mg/g"}, {"measurement": "Activity", "setting": "Syrian golden hamster [16]", "result": 3.61, "unit": "nmol/min/mg"}, {"measurement": "Activity", "setting": "Syrian golden hamster [17]", "result": 53.79, "unit": "µmol/g"}, {"measurement": "Activity", "setting": "Syrian golden hamster [18]", "result": 65.2, "unit": "µg/g"}, {"measurement": "Activity", "setting": "Syrian golden hamster [19]", "result": 80, "unit": "%"}, {"measurement": "Activity", "setting": "Syrian golden hamster [20]", "result": 19, "unit": "%"}, {"measurement": "Activity", "setting": "Syrian golden hamster [21]", "result": 0.345, "unit": "µM/min"}, {"measurement": "Activity", "setting": "Syrian golden hamster [22]", "result": 960, "unit": "µg/g"}, {"measurement": "Activity", "setting": "Syrian golden hamster [23]", "result": 51.66, "unit": "mg/dL"}, {"measurement": "Activity", "setting": "Syrian golden hamster [24]", "result": 1.56, "unit": "µmol/dL"}, {"measurement": "Activity", "setting": "Syrian golden hamster [25]", "result": 10.47, "unit": "mg/g"}, {"measurement": "Activity", "setting": "Syrian golden hamster [26]", "result": 0.057, "unit": "nmol/min/mg"}, {"measurement": "Activity", "setting": "Syrian golden hamster [27]", "result": 57.57, "unit": "mg/dL"}, {"measurement": "Activity", "setting": "Syrian golden hamster [28]", "result": 269.72, "unit": "mg/dL"}, {"measurement": "Activity", "setting": "Syrian golden hamster [29]", "result": 5.6, "unit": "µM/h"}, {"measurement": "Activity", "setting": "Syrian golden hamster [30]", "result": 1.25, "unit": "mg/g"}, {"measurement": "Activity", "setting": "Syrian golden hamster [31]", "result": 858.81, "unit": "µg/g"}, {"measurement": "Activity", "setting": "Syrian golden hamster [32]", "result": 2.61, "unit": "mg/g"}, {"measurement": "Activity", "setting": "Syrian golden hamster [33]", "result": 220.86, "unit": "mg/dL"}]}
